Tests used:
[1] = test system: blood coagulation; test: PT and aPTT, combination with warfarin (Example 21); format: in vivo, BALB/c mice
Description: Plasma was collected from each group 5 days after the last dose was administered. […] In a final group of BALB/c mice, PBS was administered subcutaneously twice a week for three weeks, as a control. Plasma was collected 5 days after the last PBS treatment.
PT and aPTT values provided in Table 33 are reported as International Normalized Ratio (INR) values.

[2] = test system: blood coagulation; test: PT and aPTT vs warfarin (Example 13); format: in vivo, BALB/c mice; details: for PT INR / aPTT INR: PPP two days after final dose
Description: In a control group, BALB/c mice were treated with PBS, administered subcutaneously mice twice a week for 3 weeks.
Two days after the final dose was administered, PPP was collected and PT and aPTT assays were performed.
PT and aPTT values provided in Table 16 are reported as International Normalized Ratio (INR) values. […] This ratio was then raised to the power of the International Sensitivity Index (ISI) of the tissue factor used.

[3] = test system: blood coagulation; test: Sense-oligonucleotide antidote: aPTT (Example 23); format: in vivo, BALB/c mice; details: ISIS 404071 40 mg/kg s.c. twice a week for three weeks, ISIS 418026 90 mg/kg where given
Description: The effect of the specific sense oligonucleotide to ISIS 404071 as an antidote was tested in BALB/c mice. In a first cohort, ISIS 404071 was administered subcutaneously to BALB/c mice twice a week for three weeks at a dose of 40 mg/kg. In a second cohort, ISIS 404057 was administered subcutaneously to BALB/c mice twice a week for three weeks at a dose of 40 mg/kg. The ISIS 404071 specific antidote, ISIS 418026 ([…]; complementary to ISIS 404071), incorporated herein as SEQ ID NO: 13, was administered to both cohorts subcutaneously in a single injection of 90 mg/kg 48 hours after the final treatment of ISIS 404071 or 404057. In a third cohort, ISIS 404071 was administered subcutaneously to BALB/c mice twice a week for three weeks at a dose of 40 mg/kg. Following the last treatment of ISIS 404071, mice were injected subcutaneously injected with PBS. In a fourth cohort, ISIS 404057 was administered subcutaneously to BALB/c mice twice a week for three weeks at a dose of 40 mg/kg. Following the last treatment of ISIS 404057, mice were injected subcutaneously injected with PBS. Following antidote administration, a set of 4 mice from each cohort were sacrificed at 12 hours, 1 day, 2 days, 3 days, 7 days, and 14 days. Whole liver was collected for RNA analysis and PPP was collected for aPTT analysis.

[4] = test system: mesenteric vein thrombosis; test: Mesenteric vein thrombosis, intravital microscopy (Example 22); format: in vivo; details: C57BL/6 mice, 50 mg/kg s.c. twice a week for three weeks
Description: In a first cohort, ISIS 404071 was administered subcutaneously to C57BL/6 mice twice a week for three weeks at a dose of 50 mg/kg. In a second cohort, a control oligonucleotide, ISIS 405277 ([…]; antisense oligonucleotide for Factor 2), incorporated herein as SEQ ID NO: 12 was administered subcutaneously to C57Bl/6 mice twice a week for three weeks at a dose of 50 mg/kg.
Blood was collected from the retro-orbital venous plexus of naïve C57BL/6 mice by puncture and collected in polypropylene tubes containing 300 μl of heparin (30 U/ml). Platelet rich plasma (PRP) was obtained by centrifugation at 1000 rpm for 5 min. The PRP was transferred to fresh tubes containing 2 μl of Prostaglandin I2 (PGI2) (2 μg/ml) and incubated at 37° C. for 5 min. After centrifugation at 2600 rpm, pellets were resuspended in 1 ml modified Tyrode's-HEPES buffer (137 mM NaCl, 0.3 mM Na2HPO4, 2 mM KCl, 12 mM NaHCO3, 5 mM HEPES, 5 mM glucose, 0.35% BSA, pH 7.2) containing 2 μl of PGI2 and incubated at 37° C. for 5 min. The suspended pellet was centrifuged at 2600 rpm for 5 min. To remove PGI2, the washing step was repeated twice and platelets were fluorescently labeled with calcein AM 2.5 μg/mL (Molecular Probes, Eugene, Oreg.) for 10 min at room temperature.
Fluorescently-labeled platelets were injected intravenously in ISIS 404071 treated and control oligonucleotide treated C57BL/6 mice. […] The exposed mesentery was kept moist throughout the experiment by periodic superfusion with warmed (37° C.) PBS. The mesentery was transluminated with a 12V, 100 W, DC stabilized source. Veins were visualized using a Zeiss (Germany) Axiovert 135 inverted microscope (Objective 32X) connected to an SVHS video recorder (AG-6730; Panasonic, Tokyo, Japan) using a CCD video camera (Hamamatsu Photonic Systems, Hamamatsu City, Japan). Centerline erythrocyte velocity (Vrbc) was measured using an optical Doppler velocimeter (Microcirculation Research Institute, Texas A&M College of Medicine, College Station, Tex.). Venular shear rate (τ) was calculated based on Poiseuille's Law for a newtonian fluid, τ=8(Vmean/Dv), where Dv is the diameter of the venule and Vmean is estimated from the measured Vrbc using the empirical correlation Vmean=Vrbc/1.6.
Mesenteric vein thrombosis was performed two days after the last antisense oligonucleotide injection. Thrombosis was induced by applying Whatman paper soaked in a 10% FeCl3 solution for 5 minutes on the mesenteric vein. The vein was monitored for 40 minutes, or until occlusion. The elapsed time before the first thrombus 30-50 μm in diameter and the elapsed time before blood stopped flowing for 30 seconds were observed.

[5] = BALB/c mice, ISIS 404071 25 or 50 mg/kg, warfarin 2 mg/kg
[6] = ISIS 404071 25 mg/kg s.c. twice a week for 3 weeks
[7] = ISIS 404071 50 mg/kg s.c. twice a week for 3 weeks
[8] = BALB/c mice, ISIS 404071 1.25-40 mg/kg, warfarin 0.5-5 mg/kg
[9] = ISIS 404071 1.25 mg/kg subcutaneously twice a week for 3 weeks
[10] = ISIS 404071 5 mg/kg subcutaneously twice a week for 3 weeks
[11] = ISIS 404071 10 mg/kg subcutaneously twice a week for 3 weeks
[12] = ISIS 404071 20 mg/kg subcutaneously twice a week for 3 weeks
[13] = ISIS 404071 40 mg/kg subcutaneously twice a week for 3 weeks

In the case of “ISIS 404071: antisense oligonucleotide targeted to murine Factor 11 mRNA, TGGTAATCCACTTTCAGAGG, target start site 869 (chemistry not given here)”, the “PT” value [1, 5] is reported as “not affected”, the “aPTT” value [1, 5] is reported as “affected” and the “PT INR” value [1, 6] is reported as 0.98 INR. The “aPTT INR” value [1, 6] was 1.37 INR, the “PT INR” value [1, 7] was 0.93 INR and the “aPTT INR” value [1, 7] was 1.49 INR. For the same substance, the “PT” value [2, 8] was “did not significantly affect PT”, the “aPTT” value [2, 8] was “did prolong aPTT” and the “PT INR” value [2, 9] was 0.99 INR. The “aPTT INR” value [2, 9] was 0.98 INR, the “PT INR” value [2, 10] was 1.07 INR and the “aPTT INR” value [2, 10] was 1.09 INR. The “PT INR” value [2, 11] was 1.08 INR, the “aPTT INR” value [2, 11] was 1.29 INR and the “PT INR” value [2, 12] was 1.09 INR. The “aPTT INR” value [2, 12] was 1.32 INR, the “PT INR” value [2, 13] was 0.98 INR and the “aPTT INR” value [2, 13] was 1.64 INR. The “aPTT INR” value ([3]; 12 hours after antidote/PBS) was 1.51 INR, the “aPTT INR” value ([3]; 1 day after antidote/PBS) was 1.30 INR and the “aPTT INR” value ([3]; 2 day after antidote/PBS) was 1.35 INR. For the same substance, the “aPTT INR” value ([3]; 3 day after antidote/PBS) was 1.27 INR, the “aPTT INR” value ([3]; 7 day after antidote/PBS) was 1.18 INR and the “aPTT INR” value ([3]; 14 day after antidote/PBS) was 1.05 INR. For the same substance, the “occlusion of veins within 40 minutes after injury” value [4] was “did not occlude”, the “time of occlusion (occlusive thrombi)” value ([4]; 10% FeCl3 on mesenteric vein) was 29.5 min and the “time of thrombus formation (30 μm in diameter)” value ([4]; 10% FeCl3 on mesenteric vein) was 14.8 ± 1.7 min.

Reference: US20230263822A1, “MODULATION OF FACTOR 11 EXPRESSION” (Ionis Pharmaceuticals, Inc., priority 2008, published 2023)
